Experimental data reported in BigSolDB 2.1.

CC1=CC(=O)[N-]S(=O)(=O)O1.[K+]
Settings | solubility (mole fraction)
in ethanol, 277.1 K | 0.000123
in ethanol, 282.39 K | 0.000154
in ethanol, 287.47 K | 0.000176
in ethanol, 292.3 K | 0.0002
in ethanol, 297.55 K | 0.000226
in ethanol, 302.65 K | 0.000259
in ethanol, 307.9 K | 0.0003
in ethanol, 312.93 K | 0.000396
in ethanol, 317.87 K | 0.000496
in ethanol, 322.9 K | 0.000634
in methanol, 277.7 K | 0.000156
in methanol, 281.79 K | 0.000173
in methanol, 286.1 K | 0.000189
in methanol, 290.39 K | 0.000205
in methanol, 294.2 K | 0.000222
in methanol, 298.51 K | 0.000238
in methanol, 302.21 K | 0.000256
in methanol, 307.8 K | 0.000288
in methanol, 311.39 K | 0.000313
in methanol, 315.47 K | 0.000341
in methanol, 319.3 K | 0.000371
in methanol, 322.8 K | 0.000401
in water, 277.98 K | 0.000151
in water, 281.23 K | 0.000167
in water, 284.73 K | 0.000186
in water, 288.35 K | 0.000207
in water, 294.9 K | 0.000249
in water, 298.02 K | 0.000271
in water, 301.03 K | 0.000292
in water, 304.01 K | 0.000314
in water, 307.07 K | 0.000338
in water, 310.24 K | 0.000363
in water, 313.53 K | 0.00039
in water, 317.3 K | 0.000419
in water, 322.3 K | 0.000474
